How the values were obtained:
[1] = system: RAW264.7 mouse macrophages; test: Determination of NO generation induced by LPS; format: cell-based; details: 10 μM, 1 μg/mL LPS, 24 hours, RAW264.7 (FIG. 2)
Procedure: The results are expressed as the multiple of the NO content in the cell culture supernatant of the administration group (10 μM) as compared with that in the cell culture supernatant of the control group (DMSO group), in which compared with the control group, *P<0.05, **P<0.01, ***P<0.001.
NO is a reactive nitrogen species (RNS) and an important gas signal molecule. Macrophages could convert arginine into NO which participated in the body's inflammatory response. Therefore, determination of inhibitory activity of a drug on NO generation was one of the classic methods to evaluate drug's anti-inflammatory ability. RAW264.7 cells at exponential growth phase were inoculated into a 96-well plate at 1×10^4 cells/200 μL. well of medium. After adherence, the medium was discarded, and the cells were subjected to drug treatments. Normal group (serum-free medium), LPS model group (serum-free medium containing 1 μg/mL LPS), LPS+drug group (serum-free medium containing 1 μg/mL LPS, 10 μM gemfibrozil or the compound of the present application) were established, and 3 repeated wells were set for each group. After 24 hours incubation in incubator, cell supernatant of each well was collected and assay was performed according to the instructions of NO determination kit (Nanjing Jiancheng). The absorbance value of each well at wavelength of 540 nm was read and NO content was calculated.

[2] = system: antioxidant response element (ARE); test: ARE luciferase reporter gene activity in HepG2 cells; format: cell-based, human; details: 50 μM, HepG2 stably transfected (FIG. 4)
Procedure: (§1) NF-κB was the most important inflammatory signal pathway. SW480 human colon cancer cells stably transfected with a luciferase reporter gene driven by NF-κB were used to determine the effects of the compound of the present application and the control drug gemfibrozil on NF-κB transcriptional activity, which comprised the following steps. • (1) Cells stably transfected with NF-κB Luc were cultivated to exponential growth, inoculated at a culture medium concentration of 1×10^5/[…] in a 24-well plate, and cultured for 24 hours, the medium was discarded, and the test compound or gemfibrozil formulated with serum-free medium at 50 μM were added to the 24-well plate and incubation was continued for 6 hours. After washing once with 200 μL of PBS, 100 μL of reporter gene cell lysis buffer was added, the cells were lysed on ice for 10 minutes, and the cell lysate was collected by pipetting. • (2) After centrifugation was performed at 8000 rpm and 4° C. for 10 min, the supernatant was pipetted for fluorescence assay. • (3) The measurement gap time of chemiluminescence analyzer was set to 2 s and the measurement time was set to 10 s. Automatic sample injection was adopted, 50 μL of luciferase assay reagent was added to each well. The reporter gene cell lysis buffer was used as a blank control. • (4) After centrifugation, the supernatant was taken, and the BCA method was used to determine the protein concentration so as to normalize the reporter gene results.
In this experimental example, the luciferase activity in HepG2 human liver cancer cells stably transfected with a luciferase reporter gene driven by antioxidant response element (ARE) was determined to evaluate the regulatory effects of the compound of the present application and gemfibrozil on the transcriptional activity of transcription factor Nrf2 and the cellular oxidative stress response signals, in which the operation process of the reporter gene assay was the same as that of Experimental Example 2.2.

[3] = system: phosphorylated IRS-1; test: Phosphorylated IRS-1 level by Western blotting in HepG2; format: cell-based, human; details: 1 μM, 24 hours, HepG2, Western blotting (FIG. 6C)
Description: (§2) Carnitine palmitoyltransferase (CPT1α) is a rate-limiting enzyme of fatty acid oxidation. When the body or tissues are lacking in energy, CPT1α catalyzes the entry of fatty acids into mitochondria for […], and at the same time, CPT1α is also involved in the regulation of fatty acid-induced insulin resistance and inflammation. Protein kinase B/glycogen synthase kinase 3β (AKT/GSK3β) signaling pathway and insulin receptor substrate 1 (IRS-1) are key signaling pathways that regulate glucose metabolism in response to insulin signal. Therefore, by determining the effects of compounds on the CPT1α protein level and the AKT, GSK3β and IRS-1 protein phosphorylation levels, it is possible to evaluate the regulatory effects of the compounds on glycolipid metabolism.
(§3) After human liver cancer cells HepG2 were incubated with the compound of the present application or the control drug at 1 μM for 24 hours, the CPT1α protein level and the AKT, GSK3β and IRS-1 phosphorylated protein levels in the cells were determined by Western blotting; after gray-scale scanning by using Image J15.0.1, normalization was performed by using β-tubulin protein level as internal control, and the quantitative analysis results were shown in FIG. 6.

[4] = system: PGC1α; test: PGC1α mRNA expression by real-time quantitative PCR in HepG2; format: cell-based, human; details: 1 μM, 6 hours, HepG2 (FIG. 5C)
Description: (§4) Peroxisome proliferation factor activated receptor (PPAR) is an important nuclear receptor that regulates glycolipid metabolism, including three subtypes: α, β/δ and γ. Peroxisome proliferator-activated receptor γ coactivator 1α (PGC-1α) is its auxiliary transcriptional activator. Acyl-CoA oxidase 1 (ACOX1) is the first rate-limiting enzyme for fatty acid β oxidation. Fatty acid binding protein 1 (FABP1) is highly expressed in liver, and can bind fatty acid, heme and other molecules to reduce their toxicity and damage. Up-regulating the expression level of these genes helps to improve the body's metabolism, and their agonists are an important class of anti-metabolic drugs. After the compound of the present application (1 μM) and the control drug gemfibrozil (1 μM) were incubated with human liver cancer cells HepG2 for 6 hours, real-time fluorescent quantitative PCR method was used to determine the relative expression of mRNA of related genes in the cells.
(§5) The company which synthesized the primers was Suzhou Hongxun Biotechnology Co., Ltd. Tranzol reagent (Tranzol total RNA extraction reagent, TransGen Biotech) was used to extract total RNA from tissues. 5× All-In-One RT MasterMix reverse transcription kit (Abcam, USA) and real-time quantitative PCR Master Mix (Aidlab Biotechnologies Co., Ltd) were used. Bio-Rad CFX Connect™ Real-Time PCR Detection System for qPCR was used, and 2^−ΔΔCT method was used for data analysis. The expression level of mRNA in the normal control group was set to 1, and the relative expression level of mRNA in the administration group was calculated, so as to confirm whether the active compound affected the PPAR pathway, thereby further regulating lipid metabolism.

[5] = system: PPARγ; test: PPARγ mRNA expression by real-time quantitative PCR in HepG2; format: cell-based, human; details: 1 μM, 6 hours, HepG2 (FIG. 5B)
Description: as §4, §5

[6] = system: NF-κB; test: NF-κB luciferase reporter gene transcriptional activity in SW480 cells; format: cell-based, human; details: 50 μM, 6 hours, SW480 stably transfected (FIG. 3)
Procedure: as §1

[7] = system: CPT1α; test: CPT1α protein level by Western blotting in HepG2; format: cell-based, human; details: 1 μM, 24 hours, HepG2, Western blotting (FIG. 6A)
Description: as §2, §3

[8] = system: db/db mice; test: Diabetes mellitus model (db/db mice); format: in vivo, mouse; details: intragastric once a day for 28 days, 50 mg/kg (pioglitazone 6 mg/kg)
Description: Animal model: C57BL/KsJ-leprdb/leprdb diabetic (db/db) mice were widely used as animal models of type 2 diabetes mellitus, in which spontaneous mutations of leptin receptor (Leptin receptor, Lepr) caused extreme obesity, polyphagia, diabetes and polyuria. In this experiment, db/db mice (purchased from the Department of Animals, Health Science Center of Peking University) were selected. In the experiment, 28 db/db mice were used, and the animals with blood glucose of about 7-13 mmol/L were selected. […] Intragastric administration was adopted with an administration volume of 10 ml/kg. […] The administration was performed once a day for 28 consecutive days. From the day of oral administration, the physiological changes of the animals were observed every day. Blood glucose was measured every 3 days (Roche blood glucose meter) and blood glucose difference (Δ) was calculated by the following formula: blood glucose difference (Δ)=the blood glucose of the day—the initial blood glucose (the initial blood glucose difference was zero). For mice in each experimental group, blood was collected, serum was separated, and liver was taken for wet-weight measurement after necropsy; liver tissue was taken and fixed for pathological examination, H.E. staining and oil red O staining (Wuhan Zishan Biotechnology Co., Ltd.) were performed, and mouse liver lesions were observed under light microscope; routine examination of blood was performed by Animal Laboratory Department, Health Science Center of Peking University to measure the following indexes: white blood cell count (WBC), red blood cell count (RBC), lymphocyte count (LY), platelet (PLT) and so on; biochemical laboratory examination of blood was performed by Laboratory Medicine, Third Hospital, Peking University to measure the following indexes: triglycerides (TG), total cholesterol (T-CHO), high-density lipoprotein cholesterol (HDL-C), low-density lipoprotein cholesterol (LDL-C) and so on.

| Structure (SMILES) | NO generation induced by LPS [1] | ARE reporter gene activity [2] | phosphorylation level of IRS-1 [3] | activity of NF-κB reporter gene [6] | further results |
| --- | --- | --- | --- | --- | --- |
| Cc1cc(Br)c(C)c(I)c1OCCCC(C)(C)C(=O)O [BJMU-413, 5-(4-bromo-2-iodo-3,6-dimethylphenoxy)-2,2-dimethylpentanoic acid] | could inhibit NO generation |  |  |  |  |
| Cc1cc(OCCCC(C)(C)C(=O)O)c(C)c(O)c1Br [BJMU-416, 5-(4-bromo-3-hydroxy-2,5-dimethylphenoxy)-2,2-dimethylpentanoic acid] |  | could significantly activate the ARE reporter gene activity | significantly increased the phosphorylation level of IRS-1 |  |  |
| Cc1cc(OCCC(C)(C)C(=O)O)c(C)cc1Br [BJMU-111, 4-(4-bromo-2,5-dimethylphenoxy)-2,2-dimethylbutanoic acid] | could inhibit NO generation |  |  |  |  |
| CCC(C)(CCCOc1cc(C)c(Br)cc1C)C(=O)O (centres unmarked) [BJMU-401, 5-(4-bromo-2,5-dimethylphenoxy)-2-ethyl-2-methylpentanoic acid] | could inhibit NO generation | could significantly activate the ARE reporter gene activity |  |  |  |
| COc1cc(Br)c(C)cc1OCCCC(C)(C)C(=O)O [BJMU-412, 5-(4-bromo-2-methoxy-5-methylphenoxy)-2,2-dimethylpentanoic acid] |  | could significantly activate the ARE reporter gene activity | significantly increased the phosphorylation level of IRS-1 |  | PGC1α mRNA expression [4]: significantly induced PGC1α mRNA expression |
| Cc1cc(OCCCC(C)(C)C#N)c(C)cc1Br [BJMU-309, 5-(4-bromo-2,5-dimethylphenoxy)-2,2-dimethylpentanenitrile] |  |  | significantly increased the phosphorylation level of IRS-1 | could significantly inhibit the activity of NF-κB reporter gene | PPARγ mRNA expression [5]: significantly induced PPARγ mRNA expression |
| Cc1cc(Br)c(C)c(O)c1OCCCC(C)(C)C(=O)O [BJMU-415, 5-(4-bromo-2-hydroxy-3,6-dimethylphenoxy)-2,2-dimethylpentanoic acid] | could inhibit NO generation | could significantly activate the ARE reporter gene activity | significantly increased the phosphorylation level of IRS-1 | could significantly inhibit the activity of NF-κB reporter gene | CPT1α protein level [7]: significantly increased CPT1α protein level; PPARγ mRNA expression [5]: significantly induced PPARγ mRNA expression; PGC1α mRNA expression [4]: significantly induced PGC1α mRNA expression |
| Cc1cc(OCCCC(C)(C)C(=O)O)c(C)c(C)c1Br [BJMU-315, 5-(4-bromo-2,3,5-trimethylphenoxy)-2,2-dimethylpentanoic acid] |  |  |  | could significantly inhibit the activity of NF-κB reporter gene |  |
| CCc1ccc(CCOc2ccc(CC3SC(=O)NC3=O)cc2)nc1 (centres unmarked) [Pioglitazone, pioglitazone] |  |  |  |  | AHDL (high density lipoprotein) [8]: 1.65 ± 0.29 mmol/L; ALDL (low density lipoprotein) [8]: 0.38 ± 0.03 mmol/L; ALT [8]: 225.43 ± 79.31 U/L; AST [8]: 212.79 ± 91.2 U/L; CHOL (total cholesterol) [8]: 3.45 ± 0.26 mmol/L; CK [8]: 1482.86 ± 707.74 U/L; CREA [8]: 12 ± 3.91 µmol/L; TGL (triglycerides) [8]: 2.17 ± 0.61 mmol/L |
| Cc1ccc(C)c(OCCCC(C)(C)C(=O)O)c1Cl [BJMU-209, 5-(2-chloro-3,6-dimethylphenoxy)-2,2-dimethylpentanoic acid] |  |  | significantly increased the phosphorylation level of IRS-1 | could significantly inhibit the activity of NF-κB reporter gene |  |
| Cc1cc(OCCCCC(C)(C)C(=O)O)c(C)cc1Br [BJMU-403, 6-(4-bromo-2,5-dimethylphenoxy)-2,2-dimethylhexanoic acid] | could inhibit NO generation | could significantly activate the ARE reporter gene activity |  |  |  |

From patent US12365643B2, “Phenoxy carboxylic acid compounds and medical uses thereof” (QINGDAO RISING BIOTECHNOLOGY CO., LTD, priority 2018, dated 2025)
